Data from US4212862A, “O,O-Diaryl-1-acyloxy-2,2,2-trichloroethylphosphonates and fungicides based thereon” (priority 1978, dated 1980).
Several values for one entry are separate records, joined by “and”; a condition that tells them apart may be missing. Equal entries are not always repeated. Where two headings read alike, the source gives them in different places.

Legend:
[1] = test system: stalk rust of wheat (Puccinia graminis); type: in vivo
[2] = Acute peroral toxicity for warm-blooded animals (LD50, LD90); type: in vivo, white mice; details: mouse, in vivo, po, Table 2; peroral; read-out: LD50 for white mice
Procedure: Toxicity (LD50) was evaluated on males and females of white mice with peroral administration of the compounds. A portion of the test compound was mixed with the emulsifier Twin-20 and diluted with distilled water to the required working concentration. Administration of the preparation was effected by means of a metal probe and syringe directly into the stomach of test animals 2-3 hours after feeding. The tests were performed using several doses, 6 animals per each dose. Subsequent observation was effected for two weeks.

[3] = test system: stalk rust (Puccinia graminis f. tritici); type: in vivo; details: in vivo

SMILES	Percentage of injury lowered ([1]; in vivo)	LD50 at 336 h [2] [mg/kg]	Percentage of plants injured with rust, 1-st evaluation [3] [%]	Percentage of plants injured with rust, 2-nd evaluation [3] [%]	Weight of 1,000 grains [3] [g]	Yield [3] [c/ha]	Percentage of injury lowered ([1]; at a concentration of 0.02%, sprayed 3 days before inoculation) [%]	Percentage of injury lowered ([1]; at a concentration of 0.1%, sprayed 3 days before inoculation) [%]
CCCCCCC(=O)OC(C(Cl)(Cl)Cl)P(=O)(Oc1ccc(-c2ccccc2)cc1)Oc1ccc(-c2ccccc2)cc1 (stereo not drawn) [XLV]	72%	> 1000						
CC(=O)OC(C(Cl)(Cl)Cl)P(=O)(Oc1ccc(Cl)c(C)c1)Oc1ccc(Cl)c(C)c1 (stereo not drawn) [XL]	95% and 76%	> 1000						
CC(=O)OC(C(Cl)(Cl)Cl)P(=O)(Oc1ccc(C)cc1)Oc1ccc(C)cc1 (stereo not drawn) [XVIII]	91% and 63%	> 500	0.5	6.5	21.4	17.20		
Cc1cccc(OP(=O)(Oc2cccc(C)c2)C(OC(=O)c2ccccc2)C(Cl)(Cl)Cl)c1 (stereo not drawn) [XVII]		> 1000						
CCCCC(CC)C(=O)OC(C(Cl)(Cl)Cl)P(=O)(Oc1cccc(C)c1)Oc1cccc(C)c1 (stereo not drawn) [XVI]	86%	> 1000						
CCCCCCC(=O)OC(C(Cl)(Cl)Cl)P(=O)(Oc1cccc(C)c1)Oc1cccc(C)c1 (stereo not drawn) [XV]	98% and 80%	> 1000	0.5	7.0	19.4	15.10		
Cc1ccc(OP(=O)(Oc2ccc(C)cc2)C(OC(=O)c2ccccc2)C(Cl)(Cl)Cl)cc1 (stereo not drawn) [XXIII]	89% and 79%	> 1000	0.5	8.0	18.1	13.30		
CCCCC(CC)C(=O)OC(C(Cl)(Cl)Cl)P(=O)(Oc1ccc(C)cc1)Oc1ccc(C)cc1 (stereo not drawn) [XXII]	94% and 48%	> 1000	0.5	9.0	15.8	11.00		
CCCCCCCCc1ccc(OP(=O)(Oc2ccc(CCCCCCCC)cc2)C(OC(C)=O)C(Cl)(Cl)Cl)cc1 (stereo not drawn) [XXIV]	62% and 35%	> 1000	0.5	12.0	13.5	8.00		
CCCCCCCCc1ccc(OP(=O)(Oc2ccc(CCCCCCCC)cc2)C(OC(=O)CC)C(Cl)(Cl)Cl)cc1 (stereo not drawn) [XXV]		> 1000	0.5	10.0	16.0	11.10		
CCC(=O)OC(C(Cl)(Cl)Cl)P(=O)(Oc1ccc(F)cc1)Oc1ccc(F)cc1 (stereo not drawn) [XXXIII]	100% and 62%	> 1000						
CC(=O)OC(C(Cl)(Cl)Cl)P(=O)(Oc1ccc(F)cc1)Oc1ccc(F)cc1 (stereo not drawn) [XXXII]	100% and 84%	> 1000						
CCCC(=O)OC(C(Cl)(Cl)Cl)P(=O)(Oc1ccc(F)cc1)Oc1ccc(F)cc1 (stereo not drawn) [XXXIV]	99% and 95%		0.5	7.4	19.6	15.10		
CCC(=O)OC(C(Cl)(Cl)Cl)P(=O)(Oc1ccc(Cl)cc1C)Oc1ccc(Cl)cc1C (stereo not drawn) [XXXIX]		> 500						
CC(=O)OC(C(Cl)(Cl)Cl)P(=O)(Oc1ccc(Cl)cc1C)Oc1ccc(Cl)cc1C (stereo not drawn) [XXXVIII]	92% and 53%	> 500						
O=C(OC(C(Cl)(Cl)Cl)P(=O)(Oc1ccc(F)cc1)Oc1ccc(F)cc1)c1ccccc1 (stereo not drawn) [XXXVII]		> 1000						
CCCCC(CC)C(=O)OC(C(Cl)(Cl)Cl)P(=O)(Oc1ccc(F)cc1)Oc1ccc(F)cc1 (stereo not drawn) [XXXVI]		> 1000						
CCCCCCC(=O)OC(C(Cl)(Cl)Cl)P(=O)(Oc1ccc(F)cc1)Oc1ccc(F)cc1 (stereo not drawn) [XXXV]		> 1000						
CCCCC(CC)C(=O)OC(C(Cl)(Cl)Cl)P(=O)(Oc1ccccc1C)Oc1ccccc1C (stereo not drawn) [X]		> 1000						
COP(=O)(OC)C(OC(C)=O)C(Cl)(Cl)Cl (stereo not drawn) [chloracetophos, O,O-dimethyl-1-acetoxy-2,2,2-trichloroethylphosphonate, reference compound]		> 1000					10	54
O=P(Oc1ccccc1)(Oc1ccccc1)C(O)C(Cl)(Cl)Cl (stereo not drawn) [reference compound]	71% and 61%	> 400						
